Reference: ChEMBL document CHEMBL1155997, “Design and synthesis of novel substituted quinazoline derivatives as antileishmanial agents” (Bioorg Med Chem Lett, 2009)
Converted amounts (≈) assume the structure as drawn. The source made the active and inactive calls. No cut-off for these calls is given here.

Tests used:
Leishmania donovani [1] = assay: Antileishmanial activity against Leishmania donovani in luciferase-promastigote system at 10 ug/ml; assay type: functional
Leishmania donovani [2] = assay: Antileishmanial activity against Leishmania donovani in luciferase-amastigote system; assay type: functional, organism-based

Compound: Clc1ccc(-c2nc(N3CCCC3)nc3c2CCc2ccccc2-3)c(Cl)c1
- inhibition at 10 µg/mL (Leishmania donovani [1]): 77.9%

Compound: c1ccc(C2NC(N3CCOCC3)=NC3=C2CCc2ccccc23)cc1 (configuration not stated)
- inhibition at 10 µg/mL (Leishmania donovani [1]): 99.9%

Compound: c1ccc(-c2nc(N3CCCC3)nc3c2CCc2ccccc2-3)cc1
- inhibition at 10 µg/mL (Leishmania donovani [1]): 74.7%

Compound: Fc1ccc(-c2nc(N3CCN(c4ccccn4)CC3)nc3c2CCc2ccccc2-3)cc1
- inhibition at 10 µg/mL (Leishmania donovani [1]): 44.9%

Compound: Fc1ccc(-c2nc(N3CCCCC3)nc3c2CCc2ccccc2-3)cc1
- inhibition at 10 µg/mL (Leishmania donovani [1]): 47.8%

Compound: Clc1ccc(C2NC(N3CCN(c4ccccn4)CC3)=NC3=C2CCc2ccccc23)cc1 (configuration not stated)
- inhibition at 10 µg/mL (Leishmania donovani [1]): 99.9%
- IC50 (Leishmania donovani [2]): 2.65 µg/mL (≈ 5.81 µM)

Compound: Clc1ccc(-c2nc(N3CCOCC3)nc3c2CCc2ccccc2-3)cc1
- inhibition at 10 µg/mL (Leishmania donovani [1]): 74.8%

Compound: D-gluconic acid, 2,4:2',4'-O-[oxybis-oxidostibylidyne]bis-, trisodium salt, nonahydrate
- inhibition (Leishmania donovani [1]): inactive

Compound: Clc1ccc(-c2nc(N3CCN(c4ccccn4)CC3)nc3c2CCc2ccccc2-3)cc1
- inhibition at 10 µg/mL (Leishmania donovani [1]): 51.4%

Compound: Fc1ccc(-c2nc(N3CCCC3)nc3c2CCc2ccccc2-3)cc1
- inhibition at 10 µg/mL (Leishmania donovani [1]): 61.8%

Compound: Clc1ccc(-c2nc(N3CCCC3)nc3c2CCc2ccccc2-3)cc1
- inhibition at 10 µg/mL (Leishmania donovani [1]): 58.3%

Compound: c1ccc(C2NC(N3CCN(c4ccccn4)CC3)=NC3=C2CCc2ccccc23)cc1 (configuration not stated)
- inhibition at 10 µg/mL (Leishmania donovani [1]): 99.4%

Compound: c1ccc(-c2nc(N3CCCCC3)nc3c2CCc2ccccc2-3)cc1
- inhibition at 10 µg/mL (Leishmania donovani [1]): 91.8%

Compound: c1ccc(-c2nc(N3CCOCC3)nc3c2CCc2ccccc2-3)cc1
- inhibition at 10 µg/mL (Leishmania donovani [1]): 71.5%

Compound: Fc1ccc(C2NC(N3CCCC3)=NC3=C2CCc2ccccc23)cc1 (configuration not stated)
- inhibition at 10 µg/mL (Leishmania donovani [1]): 99.9%
- IC50 (Leishmania donovani [2]): 4.07 µg/mL (≈ 11.7 µM)

Compound: c1ccc(-c2nc(N3CCN(c4ccccn4)CC3)nc3c2CCc2ccccc2-3)cc1
- inhibition at 10 µg/mL (Leishmania donovani [1]): 62.2%

Compound: Clc1ccc(C2NC(N3CCCC3)=NC3=C2CCc2ccccc23)c(Cl)c1 (configuration not stated)
- inhibition at 10 µg/mL (Leishmania donovani [1]): 99.8%

Compound: Clc1ccc(-c2nc(N3CCCCC3)nc3c2CCc2ccccc2-3)cc1
- inhibition at 10 µg/mL (Leishmania donovani [1]): 53.5%

Compound: c1ccc(C2NC(N3CCCCC3)=NC3=C2CCc2ccccc23)cc1 (configuration not stated)
- inhibition at 10 µg/mL (Leishmania donovani [1]): 99.8%
- IC50 (Leishmania donovani [2]): 3.48 µg/mL (≈ 10.1 µM)

Compound: Clc1ccc(-c2nc(N3CCCCC3)nc3c2CCc2ccccc2-3)c(Cl)c1
- inhibition at 10 µg/mL (Leishmania donovani [1]): 95.2%

Compound: c1ccc(C2NC(N3CCCC3)=NC3=C2CCc2ccccc23)cc1 (configuration not stated)
- inhibition at 10 µg/mL (Leishmania donovani [1]): 99.8%

Compound: Fc1ccc(C2NC(N3CCCCC3)=NC3=C2CCc2ccccc23)cc1 (configuration not stated)
- inhibition at 10 µg/mL (Leishmania donovani [1]): 99.9%
- IC50 (Leishmania donovani [2]): 3.22 µg/mL (≈ 8.91 µM)

Compound: Clc1ccc(C2NC(N3CCCCC3)=NC3=C2CCc2ccccc23)c(Cl)c1 (configuration not stated)
- inhibition at 10 µg/mL (Leishmania donovani [1]): 99.7%

Compound: Clc1ccc(C2NC(N3CCOCC3)=NC3=C2CCc2ccccc23)cc1 (configuration not stated)
- inhibition at 10 µg/mL (Leishmania donovani [1]): 98.7%
- IC50 (Leishmania donovani [2]): 5.2 µg/mL (≈ 13.7 µM)

Compound: Clc1ccc(-c2nc(N3CCN(c4ccccn4)CC3)nc3c2CCc2ccccc2-3)c(Cl)c1
- inhibition at 10 µg/mL (Leishmania donovani [1]): 15.7%

Compound: Fc1ccc(C2NC(N3CCN(c4ccccn4)CC3)=NC3=C2CCc2ccccc23)cc1 (configuration not stated)
- inhibition at 10 µg/mL (Leishmania donovani [1]): 68.2%
- IC50 (Leishmania donovani [2]): 3.58 µg/mL (≈ 8.14 µM)

Compound: Clc1ccc(-c2nc(N3CCOCC3)nc3c2CCc2ccccc2-3)c(Cl)c1
- inhibition at 10 µg/mL (Leishmania donovani [1]): 93.1%

Compound: Clc1ccc(C2NC(N3CCCCC3)=NC3=C2CCc2ccccc23)cc1 (configuration not stated)
- inhibition at 10 µg/mL (Leishmania donovani [1]): 99.6%

Compound: Fc1ccc(C2NC(N3CCOCC3)=NC3=C2CCc2ccccc23)cc1 (configuration not stated)
- inhibition at 10 µg/mL (Leishmania donovani [1]): 99.6%

Compound: N=C(N)c1ccc(OCCCCCOc2ccc(C(=N)N)cc2)cc1 [PENTAMIDINE]
- inhibition at 10 µg/mL (Leishmania donovani [1]): 100%

Compound: Clc1ccc(C2NC(N3CCCC3)=NC3=C2CCc2ccccc23)cc1 (configuration not stated)
- inhibition at 10 µg/mL (Leishmania donovani [1]): 96.3%
- IC50 (Leishmania donovani [2]): 8.95 µg/mL (≈ 24.6 µM)

Compound: Clc1ccc(C2NC(N3CCOCC3)=NC3=C2CCc2ccccc23)c(Cl)c1 (configuration not stated)
- inhibition at 10 µg/mL (Leishmania donovani [1]): 99.7%

Compound: Fc1ccc(-c2nc(N3CCOCC3)nc3c2CCc2ccccc2-3)cc1
- inhibition at 10 µg/mL (Leishmania donovani [1]): 64.8%

Compound: Clc1ccc(C2NC(N3CCN(c4ccccn4)CC3)=NC3=C2CCc2ccccc23)c(Cl)c1 (configuration not stated)
- inhibition at 10 µg/mL (Leishmania donovani [1]): 99.9%
- IC50 (Leishmania donovani [2]): 6.33 µg/mL (≈ 12.9 µM)
